Laboratory results as given in patent US7816393B2, “Isoindoline compounds and methods of their use” (Celgene Corporation, priority 2008, dated 2010).

- melting point: 334 to 336 °C
Structure (SMILES): NC(=O)C(CCC(=O)O)N1Cc2c(N)cccc2C1=O (stereo not shown) [Example 5.2, 4-(4-Amino-1-oxo-1,3-dihydro-isoindol-2-yl)-4-carbamoyl-butyric acid]
